The compounds below were run against T1, Lp-PLA2 (Homo sapiens, UniProt Q13093) (assay: Lipoprotein-associated phospholipase A2 (Lp-PLA2) human plasma assay (Thio-PAF assay)). Settings: Comparison of activity data (I); pooled human plasma, 2-thio-PAF substrate, 30-min pre-incubation.
T1 construct: aliquoted and thawed 40 μL of pooled human plasma was previously added; from tissue; host or cells: pooled human plasma
T1 sequence (Q13093 22-441): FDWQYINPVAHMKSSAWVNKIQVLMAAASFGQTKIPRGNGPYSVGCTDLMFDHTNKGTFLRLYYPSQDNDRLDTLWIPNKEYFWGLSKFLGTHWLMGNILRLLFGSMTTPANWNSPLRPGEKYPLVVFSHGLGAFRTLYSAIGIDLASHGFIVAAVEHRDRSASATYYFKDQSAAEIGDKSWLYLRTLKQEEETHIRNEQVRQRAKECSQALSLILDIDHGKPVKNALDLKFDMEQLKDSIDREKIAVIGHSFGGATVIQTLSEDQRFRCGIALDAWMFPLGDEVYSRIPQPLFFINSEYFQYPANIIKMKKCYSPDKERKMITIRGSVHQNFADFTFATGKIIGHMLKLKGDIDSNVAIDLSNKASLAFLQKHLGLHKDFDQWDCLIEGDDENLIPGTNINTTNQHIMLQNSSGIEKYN
Type: biochemical
Protocol: Lipoprotein-Associated Phospholipase A2 (Lp-PLA2) Human Plasma Assay
The amount of sulfhydryl groups is continuously determined by the reaction with CPM (7-diethylamino-3-(4′-maleimidophenyl)-4-methylcoumarin), and the CPM is a maleimide of which fluorescence increases after Michael addition of sulfhydryl group. This assay can detect Lp-PLA2 activity in human plasma, as determined by specific inhibition of Lp-PLA2 inhibitors.
Thio-PAF assay was performed as quenched 75 μL assay. Compound source plate was prepared for each compound by preparing 1:3 (by volume) serial dilutions in pure DMSO in a 96-well microplate. The compound on the source plate was diluted 20-fold by transferring 3 μL of the compound from the compound source plate into a 96-well microplate pre-added with 57 μL of assay buffer by Rainin multichannel pipette. The assay buffer described above consisted of 50 mM HEPES, pH 7.4, 150 mM NaCl, 1 mM CHAPS. 1 μL of the 20-fold diluted compound was transferred by Rainin multichannel pipette into a 96-well Greiner 655076 (black) microplate to which aliquoted and thawed 40 μL of pooled human plasma was previously added. The plate was shaken for 20 seconds on a microplate shaker to mix well. After a 30-min pre-incubation at room temperature, 10 μL of substrate solution was added to the 96-well Greiner 655076 (black) microplate by Rainin multichannel pipette, in which the substrate solution contained 2.5 mM 2-thio-PAF [from ethanol stock], 32 μM CPM [from DMSO stock], and 3.2 mM NEM (N-ethylmaleimide) [freshly prepared in DMSO per experiment] in assay buffer consisting of 50 mM HEPES, pH 7.4; 150 mM NaCl; 1 mM CHAPS. After 2 min, the reaction was quenched with […] of 5% trifluoroacetic acid (TFA) in water. The plate was centrifuged at 2000 rpm for 1 minute. The plate was read at ex:380/em:485 using a Biotek Synergy H1 (H1MF) microplate reader. IC50 data, curves and QC analysis were performed using GraphPad Prism 6.0 and Excel.

`O=c1nc(OCc2cc(F)c(F)c(F)c2)cc2n1CC13CCC(CC1)N23` [Example 52, 3-((3,4,5-trifluorobenzyl)oxy)-7,8-dihydro-1H,6H,9H-6,8a-ethanopyrrolo[1′,2′:3,4] imidazo[1,2-c]pyrimidin-1-one] was tested, and the IC50 was 16 nM.

Same assay, conditions: Lp-PLA2 human plasma assay (Thio-PAF), pooled human plasma, 30-min pre-incubation at room temperature

Point of comparison: `O=c1nc(OCc2cc(F)c(Oc3ccnc(Cl)c3)c(F)c2)cc2n1CC13CC(CN21)C3` [Example 38, 3-((4-((2-chloropyridin-4-yl)oxy)-3,5-difluorobenzyl)oxy)-7,8-dihydro-1H,6H,9H-7,8a-methanopyrrolo[1′,2′:3,4] imidazo[1,2-c]pyrimidin-1-one], IC50 8.5 nM. Against it:
- O=c1nc(OCc2cc(F)c(Oc3ccc(Cl)c(C(F)(F)F)c3)c(F)c2)cc2n1C[C@@]13CO[C@@H](CN21)C3 [Example 27, (3R,11aS)-7-((4-(4-chloro-3-(trifluoromethyl)phenoxy)-3,5-difluorobenzyl)oxy)-3,4-dihydro-1H,9H,11H-3,11a-methanopyrimido[6′,1′:2,3] imidazo[5,1-c][1,4]oxazin-9-one] — 3.4-fold lower, 2.5 nM
- O=c1nc(OCc2cc(F)c(Oc3ccnc(Cl)c3)c(F)c2)cc2n1C[C@@]13CO[C@@H](CN21)C3 [Example 28, (3R,11aS)-7-((4-((2-chloropyridin-4-yl)oxy)-3,5-difluorobenzyl)oxy)-3,4-dihydro-1H,9H,11H-3,11a-methanopyrimido[6′,1′:2,3] imidazo[5,1-c][1,4]oxazin-9-one] — within 1.5-fold, 7.3 nM
- O=c1nc(OCc2cc(F)c(Oc3cncc(C(F)(F)F)c3)c(F)c2)cc2n1C[C@@]13CO[C@@H](CN21)C3 [Example 29, (3R,11aS)-7-((3,5-difluoro-4-((5-(trifluoromethyl)pyridin-3-yl)oxy)benzyl)oxy)-3,4-dihydro-1H,9H,11H-3,11a-methanopyrimido[6′,1′:2,3] imidazo[5,1-c][1,4]oxazin-9-one] — 2.5-fold lower, 3.4 nM
- O=c1nc(OCc2cc(F)c(Oc3ccc(C(F)(F)F)nc3)c(F)c2)cc2n1C[C@@]13CO[C@@H](CN21)C3 [Example 30, (3R,11aS)-7-((3,5-difluoro-4-((6-(trifluoromethyl)pyridin-3-yl)oxy)benzyl)oxy)-3,4-dihydro-1H,9H,11H-3,11a-methanopyrimido[6′,1′:2,3] imidazo[5,1-c][1,4]oxazin-9-one] — within 1.5-fold, 6.8 nM
- N#Cc1cc(Oc2ccc(COc3cc4n(c(=O)n3)C[C@@]35CO[C@@H](CN43)C5)cc2F)cc(C(F)(F)F)c1 [Example 31] — within 1.5-fold, 7.1 nM
- O=c1nc(OCc2ccc(Oc3ccc(F)c(C(F)(F)F)c3)nc2)cc2n1C[C@@]13CO[C@@H](CN21)C3 [Example 32, (3R,11aS)-7-((6-(4-fluoro-3-(trifluoromethyl)phenoxy)pyridin-3-yl)methoxy)-3,4-dihydro-1H,9H,11H-3,11a-methanopyrimido[6′,1′:2,3] imidazo[5,1-c][1,4]oxazin-9-one] — 19-fold higher, 164 nM
- N#Cc1cc(COc2cc3n(c(=O)n2)C[C@@]24CO[C@@H](CN32)C4)ccc1Oc1cccc(C(F)(F)F)c1 [Example 33] — within 1.5-fold, 6 nM
- N#Cc1cc(COc2cc3n(c(=O)n2)C[C@@]24CO[C@@H](CN32)C4)ccc1Oc1ccc(C(F)(F)F)cc1 [Example 34, 5-((((3R,11aS)-9-oxo-3,4-dihydro-1H,9H,11H-3,11a-methanopyrimido[6′,1′:2,3]imidazo[5,1-c][1,4]oxazin-7-yl)oxy)methyl)-2-(4-(trifluoromethyl)phenoxy) benzonitrile] — 2.4-fold lower, 3.6 nM
- O=c1nc(OCc2cc(F)c(F)c(F)c2)cc2n1C[C@@]13CO[C@@H](CN21)C3 [Example 35, (3R,11aS)-7-((3,4,5-trifluorobenzyl)oxy)-3,4-dihydro-1H,9H,11H-3,11a-methanopyrimido[6′,1′:2,3] imidazo[5,1-c][1,4]oxazin-9-one] — 4.6-fold higher, 38.8 nM
- O=c1nc(OCc2cc(F)c(Oc3ccnc(C(F)(F)F)c3)c(F)c2)cc2n1CC13CC(CN21)C3 [Example 36, 3-((3,5-difluoro-4-((2-(trifluoromethyl)pyridin-4-yl)oxy)benzyl)oxy)-7,8-dihydro-1H,6H,9H-7,8a-methanopyrrolo[1′,2′:3,4] imidazo[1,2-c]pyrimidin-1-one] — within 1.5-fold, 9.6 nM
- O=c1nc(OCc2cc(F)c(Oc3ccnc(OC(F)(F)F)c3)c(F)c2)cc2n1CC13CC(CN21)C3 [Example 37, 3-((3,5-difluoro-4-((2-(trifluoromethoxy)pyridin-4-yl)oxy)benzyl)oxy)-7,8-dihydro-1H,6H,9H-7,8a-methanopyrrolo[1′,2′:3,4] imidazo[1,2-c]pyrimidin-1-one] — within 1.5-fold, 5.8 nM
- O=c1nc(OCc2cc(F)c(Oc3cnc(C(F)(F)F)nc3)c(F)c2)cc2n1CC13CC(CN21)C3 [Example 39, 3-((3,5-difluoro-4-((2-(trifluoromethyl)pyrimidin-5-yl)oxy)benzyl)oxy)-7,8-dihydro-1H,6H,9H-7,8a-methanopyrrolo[1′,2′:3,4] imidazo[1,2-c]pyrimidin-1-one] — 1.6-fold higher, 13.8 nM
- O=c1nc(OCc2cc(F)c(Oc3cncc(C(F)(F)F)c3)c(F)c2)cc2n1CC13CC(CN21)C3 [Example 40] — within 1.5-fold, 6.4 nM
- N#Cc1cc(COc2cc3n(c(=O)n2)CC24CC(CN32)C4)ccc1Oc1ccc(Cl)c(C(F)(F)F)c1 [Example 41] — 2.2-fold lower, 3.9 nM
- N#Cc1cc(COc2cc3n(c(=O)n2)CC24CC(CN32)C4)ccc1Oc1cccc(C(F)(F)F)c1 [Example 42] — 1.7-fold lower, 4.9 nM
- N#Cc1cc(COc2cc3n(c(=O)n2)CC24CC(CN32)C4)ccc1Oc1ccnc(C(F)(F)F)c1 [Example 43] — 2.1-fold lower, 4 nM
- O=c1nc(OCc2ccccc2F)cc2n1CC13CC(CN21)C3 [Example 44, 3-((2-fluorobenzyl)oxy)-7,8-dihydro-1H,6H,9H-7,8a-methanopyrrolo[1′,2′:3,4] imidazo[1,2-c]pyrimidin-1-one] — 40-fold higher, 342 nM
- O=c1nc(OCc2cccc(F)c2F)cc2n1CC13CC(CN21)C3 [Example 45, 3-((2,3-difluorobenzyl)oxy)-7,8-dihydro-1H,6H,9H-7,8a-methanopyrrolo[1′,2′:3,4] imidazo[1,2-c]pyrimidin-1-one] — 8.4-fold higher, 71.8 nM
- O=c1nc(OCc2cc(F)c(Oc3ccnc(C(F)(F)F)c3)c(F)c2)cc2n1CC13CCC(CC1)N23 [Example 46, 3-((3,5-difluoro-4-((2-(trifluoromethyl)pyridin-4-yl)oxy)benzyl)oxy)-7,8-dihydro-1H,6H,9H-6,8a-ethanopyrrolo[1′,2′:3,4] imidazo[1,2-c]pyrimidin-1-one] — 1.8-fold higher, 15.3 nM
- O=c1nc(OCc2cc(F)c(Oc3cnc(C(F)(F)F)nc3)c(F)c2)cc2n1CC13CCC(CC1)N23 [Example 47, 3-((3,5-difluoro-4-((2-(trifluoromethyl)pyrimidin-5-yl)oxy)benzyl)oxy)-7,8-dihydro-1H,6H,9H-6,8a-ethanopyrrolo[1′,2′:3,4] imidazo[1,2-c]pyrimidin-1-one] — within 1.5-fold, 9.4 nM
- Cn1cc(Oc2c(F)cc(COc3cc4n(c(=O)n3)CC35CCC(CC3)N45)cc2F)cn1 [Example 48, 3-((3,5-difluoro-4-((1-methyl-1H-pyrazol-4-yl)oxy)benzyl)oxy)-7,8-dihydro-1H,6H,9H-6,8a-ethanopyrrolo[1′,2′:3,4] imidazo[1,2-c]pyrimidin-1-one] — 7.4-fold higher, 62.8 nM
- O=c1nc(OCc2ccc(Oc3ccc(F)c(C(F)(F)F)c3)nc2)cc2n1CC13CCC(CC1)N23 [Example 49, 3-((6-(4-fluoro-3-(trifluoromethyl)phenoxy)pyridin-3-yl)methoxy)-7,8-dihydro-1H,6H,9H-6,8a-ethanopyrrolo[1′,2′:3,4] imidazo[1,2-c]pyrimidin-1-one] — 20-fold higher, 168 nM
- N#Cc1cc(COc2cc3n(c(=O)n2)CC24CCC(CC2)N34)ccc1Oc1ccc(Cl)c(C(F)(F)F)c1 [Example 50, 5-(((1-oxo-7,8-dihydro-1H,6H,9H-6,8a-ethanopyrrolo[1′,2′:3,4]imidazo[1,2-c]pyrimidin-3-yl)oxy)methyl)-2-(4-chloro-3-(trifluoromethyl)phenoxy) benzonitrile] — 3.1-fold lower, 2.7 nM
- N#Cc1cc(COc2cc3n(c(=O)n2)CC24CCC(CC2)N34)ccc1Oc1ccnc(C(F)(F)F)c1 [Example 51] — 2.6-fold lower, 3.3 nM
- O=c1nc(OCc2cc(F)c(F)c(F)c2)cc2n1CC13CCC(CC1)N23 [Example 52, 3-((3,4,5-trifluorobenzyl)oxy)-7,8-dihydro-1H,6H,9H-6,8a-ethanopyrrolo[1′,2′:3,4] imidazo[1,2-c]pyrimidin-1-one] — 1.9-fold higher, 16 nM

— patent US20230044787A1, “TRICYCLE DIHYDROIMIDAZOPYRIMIDONE DERIVATIVE, PREPARATION METHOD THEREOF, PHARMACEUTICAL COMPOSITION AND USE THEREOF” (priority 2019, published 2023)
